What was measured:
[1] = target: T1, Mcm467 (Saccharomyces cerevisiae, UniProt P30665+P38132+P53091); experiment: Mcm467 helicase (DNA unwinding) assay; format: biochemical; settings: DNA unwinding, 100 nM hexamer, inhibitor preincubation; […]; read-out: IC50 Mcm467
T1 construct: made in house; host or cells: baculovirus-infected insect cells

[2] = target: T2, SV40 large TAg (Simian virus 40, UniProt P03070); experiment: ssDNA double filter-binding assay, TAg; set-up: species or system SV40 (simian virus 40); settings: 1 mM compound, 150 nM helicase
T2 construct: made in house
T2 sequence (P03070 whole entry): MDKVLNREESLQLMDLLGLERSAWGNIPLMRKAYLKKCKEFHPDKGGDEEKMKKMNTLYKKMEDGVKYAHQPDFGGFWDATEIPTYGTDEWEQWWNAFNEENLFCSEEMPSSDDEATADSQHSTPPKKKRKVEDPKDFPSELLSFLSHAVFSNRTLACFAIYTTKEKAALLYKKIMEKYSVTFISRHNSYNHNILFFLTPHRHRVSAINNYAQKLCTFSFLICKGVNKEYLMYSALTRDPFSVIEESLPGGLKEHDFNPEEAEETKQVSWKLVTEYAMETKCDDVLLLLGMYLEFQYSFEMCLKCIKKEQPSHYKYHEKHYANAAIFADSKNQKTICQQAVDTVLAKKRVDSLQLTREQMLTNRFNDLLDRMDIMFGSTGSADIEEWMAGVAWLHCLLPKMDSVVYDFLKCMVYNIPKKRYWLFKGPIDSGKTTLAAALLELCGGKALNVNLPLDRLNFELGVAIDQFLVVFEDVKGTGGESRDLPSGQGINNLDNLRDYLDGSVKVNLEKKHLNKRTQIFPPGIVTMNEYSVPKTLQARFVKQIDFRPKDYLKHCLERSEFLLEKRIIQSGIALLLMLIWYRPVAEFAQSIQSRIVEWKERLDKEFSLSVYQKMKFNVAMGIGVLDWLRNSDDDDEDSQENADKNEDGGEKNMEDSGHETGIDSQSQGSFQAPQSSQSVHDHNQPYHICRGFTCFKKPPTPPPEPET

T1 sequence (P30665 whole entry): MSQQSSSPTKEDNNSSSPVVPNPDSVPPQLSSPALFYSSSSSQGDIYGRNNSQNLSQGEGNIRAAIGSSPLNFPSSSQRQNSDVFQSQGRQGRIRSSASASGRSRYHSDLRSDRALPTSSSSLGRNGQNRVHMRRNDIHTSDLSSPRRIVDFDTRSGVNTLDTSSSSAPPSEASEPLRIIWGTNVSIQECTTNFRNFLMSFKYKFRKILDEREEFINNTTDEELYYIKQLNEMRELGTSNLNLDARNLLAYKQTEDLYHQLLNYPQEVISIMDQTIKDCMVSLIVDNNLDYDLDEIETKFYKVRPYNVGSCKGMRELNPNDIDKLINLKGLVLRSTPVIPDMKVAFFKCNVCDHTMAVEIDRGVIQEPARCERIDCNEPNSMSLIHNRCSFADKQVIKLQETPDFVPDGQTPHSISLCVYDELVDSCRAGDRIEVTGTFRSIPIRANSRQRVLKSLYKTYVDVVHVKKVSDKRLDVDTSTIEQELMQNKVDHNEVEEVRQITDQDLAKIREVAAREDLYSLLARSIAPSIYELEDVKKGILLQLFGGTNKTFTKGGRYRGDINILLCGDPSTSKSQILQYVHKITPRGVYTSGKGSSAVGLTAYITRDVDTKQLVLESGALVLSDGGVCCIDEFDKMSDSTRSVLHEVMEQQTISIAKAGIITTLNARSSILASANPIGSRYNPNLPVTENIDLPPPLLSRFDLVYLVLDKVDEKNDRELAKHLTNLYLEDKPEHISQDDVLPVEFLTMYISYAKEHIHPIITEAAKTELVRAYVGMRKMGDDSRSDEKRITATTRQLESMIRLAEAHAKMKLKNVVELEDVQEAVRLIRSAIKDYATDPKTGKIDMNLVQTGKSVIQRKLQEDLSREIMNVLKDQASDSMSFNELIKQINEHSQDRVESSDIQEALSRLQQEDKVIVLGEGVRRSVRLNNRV
T1 sequence (P53091 whole entry): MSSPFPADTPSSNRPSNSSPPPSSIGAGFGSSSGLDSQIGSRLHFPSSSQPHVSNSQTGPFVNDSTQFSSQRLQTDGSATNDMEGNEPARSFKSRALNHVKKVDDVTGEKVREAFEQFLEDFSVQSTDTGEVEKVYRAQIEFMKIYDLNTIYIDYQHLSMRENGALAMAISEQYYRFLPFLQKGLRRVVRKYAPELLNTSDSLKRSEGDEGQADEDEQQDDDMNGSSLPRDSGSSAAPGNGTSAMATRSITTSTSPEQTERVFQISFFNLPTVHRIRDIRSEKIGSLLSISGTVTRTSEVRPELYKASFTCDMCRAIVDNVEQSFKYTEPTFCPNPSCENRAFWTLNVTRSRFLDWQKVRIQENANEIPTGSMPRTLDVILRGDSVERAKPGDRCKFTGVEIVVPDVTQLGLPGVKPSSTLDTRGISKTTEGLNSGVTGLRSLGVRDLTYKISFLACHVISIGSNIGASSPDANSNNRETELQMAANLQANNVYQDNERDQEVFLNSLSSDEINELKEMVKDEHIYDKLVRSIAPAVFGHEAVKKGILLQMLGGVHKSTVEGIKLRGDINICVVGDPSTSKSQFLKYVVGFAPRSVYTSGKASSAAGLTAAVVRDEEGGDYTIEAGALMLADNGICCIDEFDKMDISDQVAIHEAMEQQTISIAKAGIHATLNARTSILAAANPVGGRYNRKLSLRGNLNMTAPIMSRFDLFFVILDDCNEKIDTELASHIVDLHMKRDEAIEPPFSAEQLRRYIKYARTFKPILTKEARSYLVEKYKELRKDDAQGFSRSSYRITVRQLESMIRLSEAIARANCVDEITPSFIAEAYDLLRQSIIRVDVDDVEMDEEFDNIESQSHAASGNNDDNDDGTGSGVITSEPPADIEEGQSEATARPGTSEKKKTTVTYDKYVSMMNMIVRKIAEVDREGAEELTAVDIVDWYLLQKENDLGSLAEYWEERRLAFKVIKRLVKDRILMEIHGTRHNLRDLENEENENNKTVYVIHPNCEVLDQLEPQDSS
T1 sequence (P38132 whole entry): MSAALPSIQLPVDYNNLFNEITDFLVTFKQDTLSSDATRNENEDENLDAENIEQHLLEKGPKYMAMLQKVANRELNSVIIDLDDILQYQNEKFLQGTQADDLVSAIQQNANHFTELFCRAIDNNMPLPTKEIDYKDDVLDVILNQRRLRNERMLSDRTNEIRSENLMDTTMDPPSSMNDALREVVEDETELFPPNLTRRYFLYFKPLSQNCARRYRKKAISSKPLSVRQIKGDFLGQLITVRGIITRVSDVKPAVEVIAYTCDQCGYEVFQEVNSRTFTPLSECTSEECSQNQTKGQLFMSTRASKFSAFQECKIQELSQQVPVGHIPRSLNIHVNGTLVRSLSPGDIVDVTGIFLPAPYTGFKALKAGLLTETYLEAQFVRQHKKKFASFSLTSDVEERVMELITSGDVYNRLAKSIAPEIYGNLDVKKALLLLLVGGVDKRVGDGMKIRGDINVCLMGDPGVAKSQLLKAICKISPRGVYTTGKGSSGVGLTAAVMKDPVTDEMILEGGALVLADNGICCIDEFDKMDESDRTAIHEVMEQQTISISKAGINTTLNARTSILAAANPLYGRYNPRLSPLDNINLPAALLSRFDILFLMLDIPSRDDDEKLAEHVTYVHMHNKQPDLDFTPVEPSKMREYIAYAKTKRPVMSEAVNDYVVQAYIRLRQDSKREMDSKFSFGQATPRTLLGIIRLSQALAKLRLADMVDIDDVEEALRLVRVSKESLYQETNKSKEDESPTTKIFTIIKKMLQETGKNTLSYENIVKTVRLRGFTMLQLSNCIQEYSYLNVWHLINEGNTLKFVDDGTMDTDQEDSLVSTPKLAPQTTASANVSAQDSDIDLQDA

O=C(O)c1cn(C2CC2)c2cc(N3CCNCC3)c(F)cc2c1=O [Ciprofloxacin, ciprofloxacin, reference compound]
IC50 [1]: 1890 µM
effect on ssDNA binding of TAg [2]: only modest effects

From paper PMC3791872 (Bioscience Reports, 2013)
